# Measurements taken from patent publication US20220128557A1, “[…] METHODS FOR REAL-TIME CELL MONITORING” (PHENOFAST LTD., priority 2019, published 2022).
# Tested on: E. coli
# Experiment: Classical method of serial antibiotic dilution for MIC
# Type: cell-based
# Settings: FIG. 7E
# Procedure: FIGS. 7A-7E: (7A-7D) Scatter plots, with best fit lines of optical output measured by intensity shift as a function of time, performed on a series of 6 semi-stable sucrose coated grating units in parallel inoculated with E. coli cells and treated an hour later with (7A) 0 μg, (7B) 2.5 μg, (7C) 5.0 μg, and (7D) 7.5 μg of G418. (7E) A photograph of the classical serial dilution method for determining the MIC of G418 for treating E. coli.
# By monitoring the diffraction over time, a range for minimum inhibitory concentration (MIC) was established (FIG. 7A-D). A control well received no antibiotic and normal logarithmic growth was observed (FIG. 7A). […] This would place the MIC at between 2.5 and 5.0 which was the same as the range (2.3-4.7 μg) found by the classical method of serial antibiotic dilution (FIG. 7E).
smiles,measurement,value
CN[C@@H]1[C@@H](O)[C@@H](O[C@@H]2[C@@H](O)[C@H](O[C@H]3O[C@H]([C@@H](C)O)[C@@H](O)[C@H](O)[C@H]3N)[C@@H](N)C[C@H]2N)OC[C@]1(C)O [G418],MIC range found by classical serial antibiotic dilution,2.3 to 4.7 µg
